According to patent publication US12281109B2 (Merck Sharp & Dohme LLC, priority 2019, dated 2025):

How the values were obtained:
[1] = biological target: T1, HDAC6 (Homo sapiens, UniProt Q9UBN7); assay: Human HDAC enzyme inhibitor Fluor-De-Lys assay, HDAC6; type: biochemical; settings: 1.3 nM total enzyme, 2.5 μM substrate BML-KI104, 3 hours pre-incubation, 60 min reaction, 23° C., 4-parameter fit
T1 sequence (Q9UBN7 1-1215): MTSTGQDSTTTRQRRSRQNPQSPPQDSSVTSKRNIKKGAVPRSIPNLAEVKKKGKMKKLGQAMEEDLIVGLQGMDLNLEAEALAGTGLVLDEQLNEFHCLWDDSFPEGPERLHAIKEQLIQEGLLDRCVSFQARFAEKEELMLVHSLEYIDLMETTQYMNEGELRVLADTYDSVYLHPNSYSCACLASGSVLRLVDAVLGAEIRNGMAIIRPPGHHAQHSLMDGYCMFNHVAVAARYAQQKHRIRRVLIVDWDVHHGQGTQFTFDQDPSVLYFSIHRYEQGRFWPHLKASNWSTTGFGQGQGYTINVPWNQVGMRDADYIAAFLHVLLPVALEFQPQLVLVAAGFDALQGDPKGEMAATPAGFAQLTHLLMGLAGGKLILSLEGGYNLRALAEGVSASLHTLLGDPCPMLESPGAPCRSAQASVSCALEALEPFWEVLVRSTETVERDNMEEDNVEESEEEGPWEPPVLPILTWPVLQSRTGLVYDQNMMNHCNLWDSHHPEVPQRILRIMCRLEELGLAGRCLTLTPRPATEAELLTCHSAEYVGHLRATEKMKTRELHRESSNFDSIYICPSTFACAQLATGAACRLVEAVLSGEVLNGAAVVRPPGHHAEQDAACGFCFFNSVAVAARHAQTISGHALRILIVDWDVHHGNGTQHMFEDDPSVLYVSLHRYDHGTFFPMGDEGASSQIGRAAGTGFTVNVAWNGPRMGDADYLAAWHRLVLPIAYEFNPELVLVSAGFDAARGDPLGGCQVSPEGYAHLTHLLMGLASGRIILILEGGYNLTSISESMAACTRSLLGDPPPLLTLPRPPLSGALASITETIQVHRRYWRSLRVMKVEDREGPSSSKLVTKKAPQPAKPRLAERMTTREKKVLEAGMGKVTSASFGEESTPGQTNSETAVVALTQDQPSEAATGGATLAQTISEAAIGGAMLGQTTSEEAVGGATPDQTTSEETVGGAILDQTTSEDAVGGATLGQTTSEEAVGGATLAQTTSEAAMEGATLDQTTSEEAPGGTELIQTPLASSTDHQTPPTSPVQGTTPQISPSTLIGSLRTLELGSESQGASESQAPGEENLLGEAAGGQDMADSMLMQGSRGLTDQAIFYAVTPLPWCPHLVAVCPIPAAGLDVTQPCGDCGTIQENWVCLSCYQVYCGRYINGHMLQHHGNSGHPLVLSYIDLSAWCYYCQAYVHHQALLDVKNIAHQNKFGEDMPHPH
Excerpt: (§1) Human HDAC Enzyme Inhibitor Fluor-De-Lys Assay Materials
Recombinant human HDAC8 (BML-SE145-0100) and HDAC10 (BML-SE559-0050) enzymes, HDAC substrates BML-KI104 and BML-K1178, and HDAC developer solutions BML-KI105 and BML-KI176 were purchased from Enzo Life Sciences. […] HDAC inhibitor suberoylanilide hydroxamic acid (SAHA) was obtained from Indofine and trichostatin A (TSA) was obtained from Sigma-Aldrich.
(§2) The histone deacetylase activities of HDAC1, HDAC2, HDAC3, HDAC6, and HDAC8 were measured in modified FLUOR DE LYS assays in 384-well format. In this assay, HDAC enzymes are initially incubated with an F-acetyl (or -trifluoroacetyl)-L-lysine-containing substrate with a C-terminal amide having aminomethylcoumarin as the amine component. HDACs cleave the F-acetyl group, rendering the resulting product susceptible to AMC cleavage by trypsin. The released AMC is then detected by its fluorescence.
(§3) The HDAC3/SMRT assay employed buffer B, consisting of 20 mM HEPES, pH 8.0, 1 mM MgCl2, 50 mM NaCl, 2.7 mM KCl, 0.05% BSA, 0.005% Tween 20, and 10 μM IP4. […] The HDAC8 assay employed buffer D, consisting of 20 mM HEPES, pH 8.0, 1 mM MgCl2, 100 mM NaCl, 20 mM KCl, 0.1% n-octyl-β-D-glucoside (Anatrace) and 0.05% BSA. All steps were performed at room temperature (23° C.). The assay was performed by pre-incubating serial dilutions of test compounds with the target HDAC prior to initiation with substrate. Each compound was titrated in a 10-point dose response, using a 1:3 fold dilution scheme, with 0.15 ul of solution added by ECHO555 to the plate, followed by the addition of 20 μl of the appropriate HDAC isoform diluted in appropriate assay buffer. […] Final conditions used for each assay were: 1. […] The reactions were stopped and developed by addition of 30 ul of HDAC developer solution containing a saturating level of HDAC inhibitor as follows: 1.

[2] = biological target: human HDAC3/SMRT heterodimer (Homo sapiens, UniProt O15379); assay: Human HDAC enzyme inhibitor Fluor-De-Lys assay, HDAC3/SMRT
Chain of human HDAC3/SMRT heterodimer (O15379 whole entry): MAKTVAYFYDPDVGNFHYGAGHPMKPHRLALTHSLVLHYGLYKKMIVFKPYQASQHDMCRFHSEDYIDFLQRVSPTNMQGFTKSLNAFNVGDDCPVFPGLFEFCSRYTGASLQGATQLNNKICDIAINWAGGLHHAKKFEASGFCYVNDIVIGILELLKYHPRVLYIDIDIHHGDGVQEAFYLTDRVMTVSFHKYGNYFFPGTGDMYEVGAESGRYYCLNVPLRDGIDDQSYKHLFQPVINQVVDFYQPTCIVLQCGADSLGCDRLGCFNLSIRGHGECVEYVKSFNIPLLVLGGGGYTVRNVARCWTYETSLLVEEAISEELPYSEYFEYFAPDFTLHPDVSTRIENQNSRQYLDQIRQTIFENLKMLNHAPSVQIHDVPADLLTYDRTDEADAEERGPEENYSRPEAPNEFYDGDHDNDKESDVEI
Chain of human HDAC3/SMRT heterodimer (Q9Y618 1-899 partner limits assumed): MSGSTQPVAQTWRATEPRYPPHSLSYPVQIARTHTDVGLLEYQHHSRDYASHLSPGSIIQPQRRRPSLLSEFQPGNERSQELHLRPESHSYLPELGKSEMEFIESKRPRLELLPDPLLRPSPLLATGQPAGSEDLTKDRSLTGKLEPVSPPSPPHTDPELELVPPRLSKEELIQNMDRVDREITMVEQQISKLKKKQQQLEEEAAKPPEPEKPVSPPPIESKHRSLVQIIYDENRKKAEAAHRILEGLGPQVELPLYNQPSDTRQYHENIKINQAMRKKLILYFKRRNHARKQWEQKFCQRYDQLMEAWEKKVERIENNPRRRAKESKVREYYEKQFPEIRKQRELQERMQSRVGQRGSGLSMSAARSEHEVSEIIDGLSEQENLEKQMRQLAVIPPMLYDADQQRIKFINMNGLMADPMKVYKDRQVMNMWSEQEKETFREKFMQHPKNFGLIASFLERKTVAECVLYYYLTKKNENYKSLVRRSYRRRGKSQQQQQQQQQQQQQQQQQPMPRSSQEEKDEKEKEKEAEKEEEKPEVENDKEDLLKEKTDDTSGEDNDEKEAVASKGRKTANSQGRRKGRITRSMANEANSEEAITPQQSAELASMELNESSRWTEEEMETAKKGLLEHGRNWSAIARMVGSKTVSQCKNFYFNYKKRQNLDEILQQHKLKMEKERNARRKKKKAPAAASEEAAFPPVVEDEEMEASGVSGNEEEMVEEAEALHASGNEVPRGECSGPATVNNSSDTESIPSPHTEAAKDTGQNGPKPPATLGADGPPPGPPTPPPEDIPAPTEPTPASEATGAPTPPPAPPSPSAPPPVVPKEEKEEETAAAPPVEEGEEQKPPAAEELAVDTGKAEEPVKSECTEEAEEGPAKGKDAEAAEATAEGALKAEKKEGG
Description: as §1, §2, §3

[3] = biological target: human HDAC1 (Homo sapiens, UniProt Q13547); assay: Human HDAC enzyme inhibitor Fluor-De-Lys assay, HDAC1
Chain of human HDAC1 (Q13547 whole entry): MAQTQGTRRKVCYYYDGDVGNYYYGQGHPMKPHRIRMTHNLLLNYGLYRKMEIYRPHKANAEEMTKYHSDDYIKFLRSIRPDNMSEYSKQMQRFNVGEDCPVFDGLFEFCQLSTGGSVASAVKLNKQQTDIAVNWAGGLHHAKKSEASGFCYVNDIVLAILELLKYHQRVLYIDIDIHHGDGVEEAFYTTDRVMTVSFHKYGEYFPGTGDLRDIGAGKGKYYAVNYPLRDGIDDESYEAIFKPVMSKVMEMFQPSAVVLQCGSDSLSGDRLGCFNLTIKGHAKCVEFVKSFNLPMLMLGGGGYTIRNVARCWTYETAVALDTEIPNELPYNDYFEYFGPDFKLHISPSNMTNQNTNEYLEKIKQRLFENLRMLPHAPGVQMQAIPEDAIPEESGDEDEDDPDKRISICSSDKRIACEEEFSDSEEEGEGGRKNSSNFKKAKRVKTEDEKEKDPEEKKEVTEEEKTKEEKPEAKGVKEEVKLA
Description: as §1, §2, §3

[4] = biological target: human HDAC2 (Homo sapiens, UniProt Q92769); assay: Human HDAC enzyme inhibitor Fluor-De-Lys assay, HDAC2
Chain of human HDAC2 (Q92769 whole entry): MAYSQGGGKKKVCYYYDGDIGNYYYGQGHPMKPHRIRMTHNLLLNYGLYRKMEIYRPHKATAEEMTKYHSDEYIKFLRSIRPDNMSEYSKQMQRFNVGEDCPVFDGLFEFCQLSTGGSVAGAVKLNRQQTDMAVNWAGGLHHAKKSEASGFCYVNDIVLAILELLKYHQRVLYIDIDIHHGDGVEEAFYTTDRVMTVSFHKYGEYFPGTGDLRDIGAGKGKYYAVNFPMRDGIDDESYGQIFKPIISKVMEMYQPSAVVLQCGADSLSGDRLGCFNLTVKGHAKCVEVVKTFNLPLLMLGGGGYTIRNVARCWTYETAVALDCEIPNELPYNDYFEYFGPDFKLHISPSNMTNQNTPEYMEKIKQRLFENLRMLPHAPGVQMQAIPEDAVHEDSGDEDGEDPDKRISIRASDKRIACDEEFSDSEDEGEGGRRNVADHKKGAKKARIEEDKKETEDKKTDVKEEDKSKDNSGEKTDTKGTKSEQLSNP
Description: as §1, §2, §3

Structure (SMILES) | IC50 [1] | IC50 [2] | IC50 [3] | IC50 [4]
CSc1cc(F)ccc1C(=O)NCCCC[C@H](NC(=O)c1cncs1)c1ncc(-c2ccc3ccccc3c2)[nH]1 [Example 5, (S)-N-(5-(4-fluoro-2-(methylthio)benzamido)-1-(5-(naphthalen-2-yl)-1H-imidazol-2-yl)pentyl)thiazole-5-carboxamide] | ≥ 45 µM | – | – | –
Nc1ccc(F)c(F)c1C(=O)NCCCC[C@H](NC(=O)c1cncs1)c1ncc(-c2ccc3ccccc3c2)[nH]1 [Example 9, (S)-N-(5-(6-amino-2,3-difluorobenzamido)-1-(5-(naphthalen-2-yl)-1H-imidazol-2-yl)pntyl)thiazole-5-carboxamide] | ≥ 45 µM | 0.1 µM | 7.88 µM | 15.7 µM
Nc1cc(F)c(F)cc1C(=O)NCCCC[C@H](NC(=O)c1cncs1)c1ncc(-c2ccc3ccccc3c2)[nH]1 [Example 27, (S)-N-(5-(2-amino-4,5-difluorobenzamido)-1-(5-(naphthalen-2-yl)-1H-imidazol-2-yl)pentyl)thiazole-5-carboxamide] | ≥ 45 µM | – | – | –
CSc1cc([N+](=O)[O-])ccc1C(=O)NCCCC[C@H](NC(=O)c1cncs1)c1ncc(-c2ccc3ccccc3c2)[nH]1 [Example 43, (S)-N-(5-(2-(methylthio)-4-nitrobenzamido)-1-(5-(naphthalen-2-yl)-1H-imidazol-2-yl)pentyl)thiazole-5-carboxamide] | – | 7 µM | ≥ 45 µM | ≥ 45 µM
COc1ccc2[nH]c(C)c(C(C)C(=O)N[C@@H](CCCCNC(=O)c3ccccc3SC)c3ncc(-c4cc5ccccc5nc4OC)[nH]3)c2c1 (stereo partly drawn) [Example 58, N-((5S)-5-(2-(5-methoxy-2-methyl-1H-indol-3-yl)propanamido)-5-(5-(2-methoxyquinolin-3-yl)-1H-imidazol-2-yl)pentyl)-2-(methylthio)benzamide] | – | 0.379 µM | ≥ 45 µM | ≥ 45 µM
CCN1CCC2(CC1)C[C@@H]2C(=O)N[C@@H](CCCCNC(=O)c1ccccc1SC)c1ncc(-c2cc3ccccc3nc2OC)[nH]1 [Example 60, (S)-6-ethyl-N-((S)-1-(5-(2-methoxyquinolin-3-yl)-1H-imidazol-2-yl)-5-(2-(methylthio)benzamido)pentyl)-6-azaspiro[2.5]octane-1-carboxamide] | 11.6 µM | – | – | –
COc1nc2ccccc2cc1-c1cnc([C@H](CCCCNC(=O)c2nc(C)ccc2O)NC(=O)c2cncs2)[nH]1 [Example 61, (S)-N-(5-(3-hydroxy-6-methylpicolinamido)-1-(5-(2-methoxyquinolin-3-yl)-1H-imidazol-2-yl)pentyl)thiazole-5-carboxamide] | ≥ 45 µM | – | – | –
COc1nc2ccccc2cc1-c1cnc(C2(CCCCNC(=O)c3ccccc3SC)CCC(=O)N2)[nH]1 (centres unmarked) [Example 62, N-(4-(2-(5-(2-methoxyquinolin-3-yl)-1H-imidazol-2-yl)-5-oxopyrrolidin-2-yl)butyl)-2-(methylthio)benzamide] | – | 0.671 µM | ≥ 45 µM | ≥ 45 µM
COc1nc2ccccc2cc1-c1cnc(C2(CCCCNC(=O)c3ccc(F)cc3SC)CCC(=O)N2)[nH]1 (centres unmarked) [Example 63] | – | 0.958 µM | ≥ 45 µM | ≥ 45 µM
